{"source": "paper PMC6882492", "about": "“Synthesis and biological evaluation of novel thienopyrimidine derivatives as diacylglycerol acyltransferase 1 (DGAT-1) inhibitors” (Journal of Enzyme Inhibition and Medicinal Chemistry, 2019)", "key": {"[1]": {"biological_target": "T1, human recombinant DGAT1 enzyme expressed in insect cells (SF9 cells) (Homo sapiens, UniProt O75907)", "T1 construct": "made in house; host or cells: SF9 insect cells (microsomal membrane fraction)", "T1 sequence (O75907 1-488)": "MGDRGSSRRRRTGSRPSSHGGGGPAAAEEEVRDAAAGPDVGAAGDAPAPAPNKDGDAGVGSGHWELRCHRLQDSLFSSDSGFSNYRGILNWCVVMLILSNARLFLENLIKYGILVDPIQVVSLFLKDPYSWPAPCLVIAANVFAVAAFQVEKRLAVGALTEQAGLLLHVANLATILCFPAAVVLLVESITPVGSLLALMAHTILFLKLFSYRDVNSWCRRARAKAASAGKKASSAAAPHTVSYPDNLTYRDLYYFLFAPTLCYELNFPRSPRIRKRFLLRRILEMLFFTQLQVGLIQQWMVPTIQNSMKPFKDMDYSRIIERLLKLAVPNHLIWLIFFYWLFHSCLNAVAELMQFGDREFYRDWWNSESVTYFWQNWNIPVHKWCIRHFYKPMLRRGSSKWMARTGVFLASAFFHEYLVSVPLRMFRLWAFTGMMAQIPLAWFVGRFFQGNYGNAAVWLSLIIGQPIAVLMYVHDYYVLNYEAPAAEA", "assay": "DGAT-1 inhibition assay (IC50), SF9 microsomes", "type": "biochemical", "details": "SF9 insect cells expressing human DGAT-1", "protocol": "The activity of DGAT-1 inhibitors in vitro was evaluated by using a human recombinant DGAT1 enzyme expressed in insect cells (SF9 cells). SF9 cells were homogenised by washing them with DPBS (Dulbecco’s phosphate-buffered saline) and then suspending cell pellets with a tris buffer (250 mM sucrose; 10 mM Tris-HCl [pH 7.4]; proteinase inhibitor). The resulting mixture was centrifugally separated at 10,000 × g for 30 min to remove the cell debris remaining in the lower layer thereof, and was centrifugally separated at 100,000 × g for 60 min to obtain a microsomal membrane. Further, membrane fractions were resuspended by the tris buffer, and then stored at -80 °C.\nThe activity of DGAT1 was measured according to the reported method. Specifically, 0.0001 – 10 μΜ (final concentration, FC) of the test compounds were cultured at room temperature (25 °C) for 15 min with a […] of SF9 microsomal protein solution and 100 mM of MgCl2 solution, and were then further cultured at room temperature (25 °C) for 30 min after the addition of 100 μΜ (FC in 12.5% EtOH) of 1,2-dioleyl-sn-glycerol and 30 μΜ (final conc.) of [14]C-oleyl coenzyme A. The reaction was completed by the addition of 300 μL of a mixed solution of 2-propanol/heptane (7:1), and radioactive triglyceride was separated from an organic solvent layer by using 200 μL of heptane and 200 μL of a 0.1 M carbonate buffer (pH 9.5). The amount of triglyceride was measured by liquid scintillography (Perkin Elmer, USA) after mixing with an organic solvent and an equivalent amount of scintillation solvent (MicroScint-O, Perkin Elmer, USA). The effects of inhibiting DGAT1 were calculated as percent in comparison with a control material.\nThe activities of synthesised compounds were evaluated using SF9 insect cells expressing human DGAT-1[22]. A potent DGAT-1 inhibitor, LCQ-908 (2 or pradigastat) was used as a positive control. […] The calculated lowest energy conformation model of 14c provided that the distance between the terminal carboxylic acid and NH of urea was over 16 Å, which may result in reduced activity. […]"}, "[2]": {"assay": "Tissue distribution in mice", "type": "in vivo", "details": "ICR mice, 30 mg/kg oral, n = 3", "protocol": "In addition, tissue distribution of 17a was investigated. 17a was orally administered to mice at 30 mg/kg, and 2 was administrated as a positive control (Figure 5). […] Significant activity of 17a in the OLTT appeared to result from high concentration in the small intestine, even though bioavailability of 17a was not great in mice.\nFigure 5. Tissue distribution of 17a in mice. 17a and 2 were orally administered to ICR mice at 30 mg/kg (n = 3). (a) AUC values of 17a and 2 in indicated tissues. […] Data represent mean value. (b) Tissue-to-plasma (T/P) ratio of 17a and 2. S.I.: small intestine, L.I.: large intestine."}}}
{"smiles": "O=C([O-])C[C@H]1CC[C@@H](c2csc3c(-c4ccc(NC(=O)Nc5cccc(Cl)c5)cc4)ncnc32)CC1.[Na+]", "note": "[Compound 17a, Sodium cis-2–(4–(4-(4-(3–(3-chlorophenyl)ureido)phenyl)thieno[3,2-d]pyrimidin-7-yl)cyclohexyl)acetate]", "values": [{"measurement": "IC50", "setting": "[1]", "result": 74, "unit": "nM"}, {"measurement": "Tissue distribution (concentration levels in tissues)", "setting": "[2]", "result": "in the liver and small intestine were much higher than in other tissues"}]}
